Source: patent US20130196986A1 (priority 2010, published 2013)

target: T1, P2X7 receptor (Homo sapiens, UniProt Q99572); assay: Ca++ flux assay (FLIPR) in P2X7-HEK-293 cell line stably expressing the full length P2X7 receptor, Bz-ATP activation; format: cell-based; settings: P2X7-HEK-293 cells; agonist Bz-ATP; fluorescence as total area over 90 seconds; read-out: P2X7 Ca Flux hu IC50
T1 construct: stably expressing the full length P2X7 receptor; expressed in transfected cells
T1 sequence (Q99572 1-595): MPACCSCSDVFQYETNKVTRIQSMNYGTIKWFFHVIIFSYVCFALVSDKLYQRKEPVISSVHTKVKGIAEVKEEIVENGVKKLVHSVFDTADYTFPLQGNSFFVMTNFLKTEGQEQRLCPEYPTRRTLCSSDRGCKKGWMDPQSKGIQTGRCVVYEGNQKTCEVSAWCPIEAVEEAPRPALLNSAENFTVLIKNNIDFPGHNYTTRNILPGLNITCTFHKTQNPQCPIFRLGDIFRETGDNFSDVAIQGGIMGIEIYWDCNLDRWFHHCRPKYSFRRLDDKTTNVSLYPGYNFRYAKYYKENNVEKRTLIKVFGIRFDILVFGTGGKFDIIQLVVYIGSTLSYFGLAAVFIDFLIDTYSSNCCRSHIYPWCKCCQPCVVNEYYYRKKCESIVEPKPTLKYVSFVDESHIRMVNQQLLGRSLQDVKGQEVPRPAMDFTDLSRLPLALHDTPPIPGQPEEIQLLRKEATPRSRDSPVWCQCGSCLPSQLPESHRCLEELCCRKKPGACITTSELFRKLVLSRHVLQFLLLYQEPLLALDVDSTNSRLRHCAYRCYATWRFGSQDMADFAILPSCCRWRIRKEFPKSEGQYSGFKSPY
Procedure: The ability of Triazolopyrazinone Compounds to inhibit P2X7 function can be determined in Ca^++ flux assay using a P2X7-HEK-293 cell line stably expressing the full length P2X7 receptor. The assay protocol is as described in Cheewatrakoolpong et al., Biochem. Biophys. Res. Commun. 332:17-27 (2005) with minor modification, and is as summarized hereinafter. Briefly, cells were plated in poly-D-lysine-coated wells, and incubated at 37° C. for 24 hours. Cells were then incubated for 1 hour with a loading buffer which contains a dye sensitive to changes in Ca^++ concentration (lx Calcium Plus no wash dye from Molecular Devices, Sunnyvale, Calif.). The test compounds were added to the wells in the dye loading step. Plates containing the wells were transferred to a Fluorometric Imaging Plate Reader (Molecular Devices, Sunnyvale, Calif.). The cells were activated by the addition of the P2X7 receptor agonist 2′(3) —O-(4-benzoylbenzoyl)adenosine 5′-triphosphate (Bz-ATP from Sigma-Aldrich, St. Louis, Mo.), and the fluorescence was monitored for 90 seconds. The fluorescent signal was determined as the total area over the 90 second run time. Using this protocol, representative Triazolopyrazinone Compounds, compounds 1471 were tested. Tables 3 to 6 show the concentration at which 50% of the maximum response in the Ca^++ was inhibited (IC50) for each of the test compounds.

Compound	IC50
Cc1ccccc1CSc1nnc2c(=O)n(-c3cccc(C(F)(F)F)c3Cl)ccn12 [Compound 47, 7-(2-chloro-3-(trifluorornethyl)phenyl)-3-(2-methylbenzylthio)-[1,2,4]triazolo[4,3-a]pyrazin-8(7H)-one]	41.8 nM
O=c1c2nnc(SCc3ccccc3-c3ccccc3)n2ccn1-c1cccc(C(F)(F)F)c1Cl [Compound 48, 3-(biphenyl-2-ylmethylthio)-7-(2-chloro-3-(trifluoromethyl)phenyl)-[1,2,4]triazolo[4,3-a]pyrazin-8(7H)-one]	17.3 nM
Cc1c(-n2ccn3c(SCc4ccccc4-c4ccccc4)nnc3c2=O)cccc1C(F)(F)F [Compound 49, 3-(biphenyl-2-ylmethylthio)-7-(2-methyl-3-(trifluoromethyl)phenyl)-[1,2,4]triazolo[4,3-a]pyrazin-8(7H)-one]	15.9 nM
Cc1c(Cl)cccc1-n1ccn2c(SC(=O)N(C)c3ccccc3)nnc2c1=O [Compound 50, S-7-(3-chloro-2-methylphenyl)-8-oxo-7,8-dihydro-[1,2,4]triazolo[4,3-a]pyrazin-3-yl methyl(phenyl)carbamothioate]	6530 nM
Cc1c(-n2ccn3c(SCc4ccccc4OC(F)(F)F)nnc3c2=O)cccc1C(F)(F)F [Compound 51, 7-(2-methyl-3-(trifluorornethyl)phenyl)-3-(2-(trifluoromethoxy)benzylthio)-[1,2,4]triazolo[4,3-a]pyrazin-8(7H)-one]	44.2 nM
Cc1c(-n2ccn3c(SCc4ccccc4F)nnc3c2=O)cccc1C(F)(F)F [Compound 56, 3-(2-fluorobenzylthio)-7-(2-methyl-3-(trifluoromethyl)phenyl)-[1,2,4]triazolo[4,3-a]pyrazin-8(7H)-one]	167 nM
Cc1ccccc1CSc1nnc2c(=O)n(-c3cccc(C(F)(F)F)c3C)ccn12 [Compound 57, 7-(2-methyl-3-(trifluoromethyl)phenyl)-3-(2-methylbenzylthio)-[1,2,4]triazolo[4,3-a]pyrazin-8(7H)-one]	86.4 nM
O=c1c2nnc(SCc3cc(Cl)cc(Cl)c3)n2ccn1-c1cccc(C(F)(F)F)c1F [Compound 58, 3-(3,5-dichlorobenzylthio)-7-(2-fluoro-3-(trifluoromethyl)phenyl)-[1,2,4]triazolo[4,3-a]pyrazin-8(7H)-one]	427 nM
O=c1c2nnc(SCc3ccccc3)n2ccn1-c1cccc(C(F)(F)F)c1F [Compound 59, 3-(benzylthio)-7-(2-fluoro-3-(trifluoromethyl)phenyl)-[1,2,4]triazolo[4,3-a]pyrazin-8(7H)-one]	457 nM
O=c1c2nnc(SCc3cc(Cl)cc(Cl)c3)n2ccn1-c1cccc(C(F)(F)F)c1Cl [Compound 60, 7-(2-chloro-3-(trifluorornethyl)phenyl)-3-(3,5-dichlorobenzylthio)-[1,2,4]triazolo[4,3-a]pyrazin-8(7H)-one]	91.4 nM
O=c1c2nnc(SCc3ccccc3)n2ccn1-c1cccc(C(F)(F)F)c1Cl [Compound 61, 3-(benzylthio)-7-(2-chloro-3-(trifluoromethyl)phenyl)-[1,2,4]triazolo[4,3-a]pyrazin-8(7H)-one]	44.9 nM
Cc1c(-n2ccn3c(SC(C)c4ccccc4)nnc3c2=O)cccc1C(F)(F)F (stereo not drawn) [Compound 62, 7-(2-methyl-3-(trifluoromethyl)phenyl)-3-(1-phenylethylthio)-[1,2,4]triazolo[4,3-a]pyrazin-8(7H)-one]	57.5 nM
O=c1c2nnc(SCc3ccccc3)n2ccn1-c1cccc(F)c1Cl [Compound 65, 3-(benzylthio)-7-(2-chloro-3-fluorophenyl)-[1,2,4]triazolo[4,3-a]pyrazin-8(7H)-one]	189 nM
O=c1c2nnc(SCc3cc(Cl)cc(Cl)c3)n2ccn1-c1cccc(Cl)c1Cl [Compound 67, 3-(3,5-dichlorobenzylthio)-7-(2,3-dichlorophenyl)-[1,2,4]triazolo[4,3-a]pyrazin-8(7H)-one]	168 nM
Cc1c(Cl)cccc1-n1ccn2c(SCc3c(F)cccc3C(F)(F)F)nnc2c1=O [Compound 68, 7-(3-chloro-2-methylphenyl)-3-(2-fluoro-6-(trifluoromethyl)benzylthio)-[1,2,4]triazolo[4,3-a]pyrazin-8(7H)-one]	475 nM
Cc1c(-n2ccn3c(SCc4cc(Cl)cc(Cl)c4)nnc3c2=O)cccc1C(F)(F)F [Compound 69, 3-(3,5-dichlorobenzylthio)-7-(2-methyl-3-(trifluoromethyl)phenyl)-[1,2,4]triazolo[4,3-a]pyrazin-8(7H)-one]	188 nM

The next lines start with the values.

IC50	Compound
316 nM	Cc1c(Cl)cccc1-n1ccn2c(SCc3ccccc3SC(F)(F)F)nnc2c1=O [Compound 52, 7-(3-chloro-2-methylphenyl)-3-(2-(trifluorornethylthio)benzylthio)-[1,2,4]triazolo[4,3-a]pyrazin-8(7H)-one]
994 nM	Cc1c(Cl)cccc1-n1ccn2c(SCc3ccccc3[N+](=O)[O-])nnc2c1=O [Compound 53, 7-(3-chloro-2-methylphenyl)-3-(2-nitrobenzylthio)-[1,2,4]triazolo[4,3-a]pyrazin-8(7H)-one]
44 nM	Cc1c(Cl)cccc1-n1ccn2c(SCc3ccccc3-c3ccccc3)nnc2c1=O [Compound 54, 3-(biphenyl-2-ylmethylthio)-7-(3-chloro-2-methylphenyl)-[1,2,4]triazolo[4,3-a]pyrazin-8(7H)-one]
432 nM	Cc1cccc(CSc2nnc3c(=O)n(-c4cccc(Cl)c4C)ccn23)c1F [Compound 55, 7-(3-chloro-2-methylphenyl)-3-(2-fluoro-3-methylbenzylthio)-[1,2,4]triazolo[4,3-a]pyrazin-8(7H)-one]
2540 nM	Cc1c(Cl)cccc1-n1ccn2c(SCc3cccc(Cl)c3F)nnc2c1=O [Compound 63, 3-(3-chloro-2-fluorobenzylthio)-7-(3-chloro-2-methylphenyl)-[1,2,4]triazolo[4,3-a]pyrazin-8(7H)-one]
755 nM	Cc1c(Cl)cccc1-n1ccn2c(SCc3cc(Cl)ccc3F)nnc2c1=O [Compound 64, 3-(5-chloro-2-fluorobenzylthio)-7-(3-chloro-2-methylphenyl)-[1,2,4]triazolo[4,3-a]pyrazin-8(7H)-one]
324 nM	Cc1c(Cl)cccc1-n1ccn2c(SCc3cccc(Cl)c3Cl)nnc2c1=O [Compound 66, 7-(3-chloro-2-methylphenyl)-3-(2,3-dichlorobenzylthio)-[1,2,4]triazolo[4,3-a]pyrazin-8(7H)-one]
112 nM	Cc1c(Cl)cccc1-n1ccn2c(SCc3ccccc3OC(F)(F)F)nnc2c1=O [Compound 70, 7-(3-chloro-2-methylphenyl)-3-(2-(trifluoromethoxy)benzylthio)-[1,2,4]triazolo[4,3-a]pyrazin-8(7H)-one]
142 nM	Cc1c(Cl)cccc1-n1ccn2c(SCc3ccccc3Br)nnc2c1=O [Compound 71, 3-(2-bromobenzylthio)-7-(3-chloro-2-methylphenyl)-[1,2,4]triazolo[4,3-a]pyrazin-8(7H)-one]
3150 nM	Cc1c(Cl)cccc1-n1ccn2c(SCc3cc(Cl)ccc3Cl)nnc2c1=O [Compound 72, 7-(3-chloro-2-methylphenyl)-3-(2,5-dichlorobenzylthio)-[1,2,4]triazolo[4,3-a]pyrazin-8(7H)-one]
439 nM	Cc1cccc(CSc2nnc3c(=O)n(-c4cccc(Cl)c4C)ccn23)c1 [Compound 73, 7-(3-chloro-2-methylphenyl)-3-(3-methylbenzylthio)-[1,2,4]triazolo[4,3-a]pyrazin-8(7H)-one]
264 nM	Cc1c(Cl)cccc1-n1ccn2c(SCc3ccccc3I)nnc2c1=O [Compound 74, 7-(3-chloro-2-methylphenyl)-3-(2-iodobenzylthio)-[1,2,4]triazolo[4,3-a]pyrazin-8(7H)-one]
280 nM	Cc1c(Cl)cccc1-n1ccn2c(SCc3c(Cl)cccc3Cl)nnc2c1=O [Compound 75, 7-(3-chloro-2-methylphenyl)-3-(2,6-dichlorobenzylthio)-[1,2,4]triazolo[4,3-a]pyrazin-8(7H)-one]
462 nM	Cc1c(Cl)cccc1-n1ccn2c(SCc3cccc(I)c3)nnc2c1=O [Compound 77, 7-(3-chloro-2-methylphenyl)-3-(3-iodobenzylthio)-[1,2,4]triazolo[4,3-a]pyrazin-8(7H)-one]
